The values that follow come from patent publication US20260364080A1, “PYRAZOLO-PYRIMIDINONE COMPOUNDS FOR USE IN METHODS OF INHIBITING WEE1 A KINASE” (Acrivon Therapeutics, Inc., priority 2023, published 2026).

Experiment [1] has as its target T1, recombinant human Wee1A kinase (Homo sapiens, UniProt P30291).
T1 construct: full length Wee1 kinase was expressed by baculovirus in insect cells; purchased Invitrogen PV3817; host or cells: insect cells (baculovirus)
Put plainly: Wee1A kinase binding assay (LanthaScreen Eu time-resolved FRET). The method in brief: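 Full-length, baculovirus-expressed GST-tagged Wee1A (5 nM) was mixed with 2 nM Eu-anti-GST antibody, 30 nM kinase tracer 178 and compound (1% DMSO). Buffer was 50 mM HEPES pH 7.5, 10 mM MgCl2, 1 mM EGTA, 0.01% Brij-35, incubated 60 min at room temperature. TR-FRET 665/615 nm emission ratios from duplicates were curve-fitted.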
A general note: In TR-FRET formats the signal depends on donor and acceptor labels being close together.

Experiment [2] addresses T2, Myt1 kinase (recombinant PMYT-1) (Homo sapiens, UniProt Q99640).
T2 construct: full length PMYT-1 was expressed by baculovirus in insect cells; purchased Invitrogen A30984; host or cells: insect cells (baculovirus)
T2 sequence (Q99640 1-499): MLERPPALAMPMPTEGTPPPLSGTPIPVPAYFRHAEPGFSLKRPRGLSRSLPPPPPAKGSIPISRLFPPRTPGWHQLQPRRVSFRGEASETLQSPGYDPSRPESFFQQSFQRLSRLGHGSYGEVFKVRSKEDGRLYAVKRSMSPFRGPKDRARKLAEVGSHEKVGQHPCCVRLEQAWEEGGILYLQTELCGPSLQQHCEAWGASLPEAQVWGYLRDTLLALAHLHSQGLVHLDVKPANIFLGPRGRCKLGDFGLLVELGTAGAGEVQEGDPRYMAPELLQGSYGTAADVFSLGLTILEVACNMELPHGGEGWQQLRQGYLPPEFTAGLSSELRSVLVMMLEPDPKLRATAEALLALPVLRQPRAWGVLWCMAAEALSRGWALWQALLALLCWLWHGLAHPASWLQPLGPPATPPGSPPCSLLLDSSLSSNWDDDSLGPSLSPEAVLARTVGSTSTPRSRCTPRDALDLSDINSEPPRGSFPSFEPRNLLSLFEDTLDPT
Put plainly: Myt1 kinase binding assay (LanthaScreen Eu Kinase Binding Assay). The method in brief:
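Compound binding to Myt1 kinase was assessed using the LanthaScreen Eu Kinase Binding Assay. This europium-based binding format was applied to quantify how strongly each compound bound to the Myt1 enzyme, and the binding affinity was reported for each compound as an IC50 value.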

The target of experiment [3] is T3, Wee1A kinase (CDK1 Tyr15 phosphorylation in ACHN renal cell carcinoma cells) (Homo sapiens, UniProt P30291).
T3 construct: pCDK1 Tyr15 immunofluorescence read-out
T3 sequence (P30291 whole entry): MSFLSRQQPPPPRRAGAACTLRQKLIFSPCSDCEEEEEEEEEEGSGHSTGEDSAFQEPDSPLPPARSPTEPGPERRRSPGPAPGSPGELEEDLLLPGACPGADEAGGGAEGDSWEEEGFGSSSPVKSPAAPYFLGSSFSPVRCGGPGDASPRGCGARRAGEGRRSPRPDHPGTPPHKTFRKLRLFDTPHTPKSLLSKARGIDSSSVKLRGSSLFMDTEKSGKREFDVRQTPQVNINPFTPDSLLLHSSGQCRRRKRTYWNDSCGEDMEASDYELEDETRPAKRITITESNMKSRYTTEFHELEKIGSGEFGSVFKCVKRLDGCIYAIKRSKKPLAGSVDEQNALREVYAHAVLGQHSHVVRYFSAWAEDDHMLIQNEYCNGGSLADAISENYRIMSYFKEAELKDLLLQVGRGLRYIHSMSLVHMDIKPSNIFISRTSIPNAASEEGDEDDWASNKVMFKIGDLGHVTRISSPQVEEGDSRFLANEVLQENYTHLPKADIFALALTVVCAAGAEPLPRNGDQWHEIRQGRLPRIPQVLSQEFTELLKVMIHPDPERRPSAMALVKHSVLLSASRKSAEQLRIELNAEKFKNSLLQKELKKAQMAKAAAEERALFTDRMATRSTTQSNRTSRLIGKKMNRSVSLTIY
Put plainly: High-content imaging of pCdk1 Y15, Wee1A kinase target engagement in ACHN cells. In kind it is cell-based. The method in brief: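 EC50 values come from the per-well fraction of cells with nuclear pCdk1 Y15 staining, normalised to DMSO control, by automated immunofluorescence imaging. Cells were ACHN renal carcinoma, treated 4 h with compound at 7–5,000 nM or 0.3–200 nM.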

Where [4] appears, read: 30 nM tracer 178, 5 nM Wee1A kinase, 2 nM Eu-labeled antibody, 60 minutes at room temperature, read-out: Wee1A kinase Binding IC50.
The mark [5] stands for this setting: 3 nM tracer 178, 2.5 nM PMYT-1, 1 nM Eu-labeled antibody, read-out: Myt1 kinase Binding IC50.
Where [6] appears, read: 4 h treatment, nuclear positivity for pCdk1 Y15 vs DMSO control, read-out: CDK1 Tyr15 Phosphorylation EC50.

SMILES strings stand for the structures. Read-outs that look alike come from different tables or passages of the source.

T1 sequence (P30291 whole entry): as above

With `CCn1c(=O)c2cnc(Nc3ccc(F)cc3)nc2n1-c1cccc(OC2CCNCC2)n1` [Compound 297, 2-ethyl-6-(p-fluorophenylamino)-1-[6-(4-piperidyloxy)-2-pyridyl]-1,2-dihydro-3H-1,2,5,7-tetraazainden-3-one], the values for the IC50 in experiment [1] (setting [4]) and in experiment [2] (setting [5]) were < 10 nM and 100 to 500 nM, respectively. In addition, in experiment [3] (setting [6]), the EC50 is 100 to 500 nM.
On to `C=CCn1c(=O)c2cnc(Nc3ccc4c(cnn4C)c3)nc2n1-c1cccc(OC2CCNC(C)(C)C2)n1` (stereo not drawn) [Compound 337, 2-allyl-1-(6-((2,2-dimethylpiperidin-4-yl)oxy)pyridin-2-yl)-6-((1-methyl-1H-indazol-5-yl)amino)-1,2-dihydro-3H-pyrazolo[3,4-d]pyrimidin-3-one], for which the IC50 in experiment [1] (setting [4]) is < 10 nM; in experiment [2] (setting [5]), 100 to 500 nM. The 50% effective concentration (EC50) in experiment [3] (setting [6]) was < 100 nM.
The matching figures for `C=CCn1c(=O)c2cnc(Nc3ccc4nccnc4c3)nc2n1-c1cccc(OC2CCNCC2)n1` [Compound 239, 2-allyl-1-[6-(4-piperidyloxy)-2-pyridyl]-6-(6-quinoxalinylamino)-1,2-dihydro-3H-1,2,5,7-tetraazainden-3-one]: < 10 nM, < 20 nM and 100 to 500 nM.
The matching figures for `C=CCn1c(=O)c2cnc(Nc3ccc4c(cnn4CC(C)C)c3)nc2n1-c1cccc(OC2CCNCC2)n1` [Compound 356, 2-allyl-6-((1-isobutyl-1H-indazol-5-yl)amino)-1-(6-(piperidin-4-yloxy)pyridin-2-yl)-1,2-dihydro-3H-pyrazolo[3,4-d]pyrimidin-3-one]: < 10 nM, < 20 nM and < 100 nM.
For `C=CCn1c(=O)c2cnc(Nc3ccc4c(cnn4C)c3)nc2n1-c1cccc(O[C@H]2CCCNCC2)n1` (single isomer, unassigned) [Compound 358], the IC50 in experiment [1] (setting [4]) was < 10 nM; in experiment [2] (setting [5]), 100 to 500 nM. In addition, the EC50 in experiment [3] (setting [6]) is < 100 nM.
The corresponding values for `CCn1c(=O)c2cnc(Nc3ccc4c(ccn4C)c3)nc2n1-c1cccc(OC2CCNCC2)n1` [Compound 353, 2-ethyl-6-((1-methyl-1H-indol-5-yl)amino)-1-(6-(piperidin-4-yloxy)pyridin-2-yl)-1,2-dihydro-3H-pyrazolo[3,4-d]pyrimidin-3-one] are < 10 nM, 20 to 100 nM and < 100 nM.
Take `C=CCn1c(=O)c2cnc(Nc3ccc(Cl)c(Cl)c3)nc2n1-c1cccc(NC2CCN(C)CC2)n1` [Compound 151, 2-allyl-6-(3,4-dichlorophenylamino)-1-[6-(1-methyl-4-piperidylamino)-2-pyridyl]-1,2-dihydro-3H-1,2,5,7-tetraazainden-3-one]: the IC50 in experiment [1] (setting [4]) was < 10 nM; in experiment [2] (setting [5]), 100 to 500 nM. In addition, in experiment [3] (setting [6]), the concentration for a half-maximal effect (EC50) is 100 to 500 nM.
Take `C=CCn1c(=O)c2cnc(Nc3ccc(C)nc3)nc2n1-c1cccc(OC2CCNCC2)n1` [Compound 237, 2-allyl-6-((6-methylpyridin-3-yl)amino)-1-(6-(piperidin-4-yloxy)pyridin-2-yl)-1,2-dihydro-3H-pyrazolo[3,4-d]pyrimidin-3-one]: the IC50 in experiment [1] (setting [4]) is < 10 nM; in experiment [2] (setting [5]), 20 to 100 nM. Moreover, the EC50 in experiment [3] (setting [6]) is 100 to 500 nM.
The matching figures for `C=CCn1c(=O)c2cnc(Nc3ccc(OCC(F)(F)F)c(C)c3)nc2n1-c1cccc(NC2CCNCC2)n1` [Compound 178, 2-allyl-1-[6-(4-piperidylamino)-2-pyridyl]-6-[4-(2,2,2-trifluoroethoxy)-3-toluidino]-1,2-dihydro-3H-1,2,5,7-tetraazainden-3-one]: < 10 nM, 100 to 500 nM and 100 to 500 nM.
On to `C=CCn1c(=O)c2cnc(Nc3cncc(F)c3)nc2n1-c1cccc(OC2CCNCC2)n1` [Compound 329, 2-allyl-6-(5-fluoro-3-pyridylamino)-1-[6-(4-piperidyloxy)-2-pyridyl]-1,2-dihydro-3H-1,2,5,7-tetraazainden-3-one], for which the values for the IC50 in experiment [1] (setting [4]) and in experiment [2] (setting [5]) were < 10 nM and 20 to 100 nM, respectively. Further, the EC50 in experiment [3] (setting [6]) is 500 to 1000 nM.
The corresponding values for `C=CCn1c(=O)c2cnc(Nc3ccc4c(cnn4C)c3)nc2n1-c1cccc(OC2CCN(C)C(C)(C)C2)n1` (stereo not drawn) [Compound 343, 2-allyl-6-((1-methyl-1H-indazol-5-yl)amino)-1-(6-((1,2,2-trimethylpiperidin-4-yl)oxy)pyridin-2-yl)-1,2-dihydro-3H-pyrazolo[3,4-d]pyrimidin-3-one] are < 10 nM, 100 to 500 nM and 100 to 500 nM.
For `C=CCn1c(=O)c2cnc(Nc3ccc(Cl)cc3)nc2n1-c1cccc(N(CCC)C2CCNCC2)n1` [Compound 147], the IC50 in experiment [1] is < 10 nM; in experiment [2] (Myt1 kinase Binding IC50, 3 nM tracer 178, 2.5 nM PMYT-1, 1 nM Eu-labeled antibody), > 500 nM. Besides, the EC50 in experiment [3] (read-out: CDK1 Tyr15 Phosphorylation EC50, 4 h treatment, nuclear positivity for pCdk1 Y15 vs DMSO control) was > 1000 nM.
For the compound `CCn1c(=O)c2cnc(Nc3ccc(-c4ccccc4)cc3)nc2n1-c1cccc(OC2CCN(C)CC2)n1` [Compound 284, 6-(4-biphenylylamino)-2-ethyl-1-[6-(1-methyl-4-piperidyloxy)-2-pyridyl]-1,2-dihydro-3H-1,2,5,7-tetraazainden-3-one], the IC50 in experiment [1] (setting [4]) was < 10 nM; in experiment [2] (setting [5]), < 20 nM. In experiment [3] (setting [6]), the 50% effective concentration (EC50) fell in the range of 100 to 500 nM.
The corresponding values for `C=CCn1c(=O)c2cnc(Nc3ccc(C#N)c(C)c3)nc2n1-c1cccc(NC2CCNCC2)n1` [Compound 134, 2-methyl-4-[(3-oxo-1-{6-[(piperidin-4-yl)amino]pyridin-2-yl}-2-(prop-2-en-1-yl)-1H,2H,3H-pyrazolo[3,4-d]pyrimidin-6-yl)amino]benzonitrile] are < 10 nM, 100 to 500 nM and > 1000 nM.
In the case of `C=CCn1c(=O)c2cnc(Nc3cnc4c(cnn4C(C)C)c3)nc2n1-c1cccc(OC2CCNCC2)n1` [Compound 407, 2-allyl-6-((1-isopropyl-1H-pyrazolo[3,4-b]pyridin-5-yl)amino)-1-(6-(piperidin-4-yloxy)pyridin-2-yl)-1,2-dihydro-3H-pyrazolo[3,4-d]pyrimidin-3-one], the values for the concentration for half-maximal inhibition (IC50) in experiment [1] (setting [4]) and in experiment [2] (setting [5]) were < 10 nM and < 20 nM, respectively. Besides, the EC50 in experiment [3] (setting [6]) was < 100 nM.
The corresponding values for `C=CCn1c(=O)c2cnc(Nc3ccc(Cl)cc3)nc2n1-c1cccc(O[C@H]2CCN(C)C2)n1` [Compound 148, 1-{6-[(S)-1-methyl-3-pyrrolidinyloxy]-2-pyridyl}-2-allyl-6-(p-chlorophenylamino)-1,2-dihydro-3H-1,2,5,7-tetraazainden-3-one] are < 10 nM, 20 to 100 nM and 100 to 500 nM.
The matching figures for `C=CCn1c(=O)c2cnc(Nc3ccc(F)cc3)nc2n1-c1cccc(OC2CCCNCC2)n1` (single isomer, unassigned) [Compound 344]: < 10 nM, > 500 nM and 100 to 500 nM.
Consider `CCn1c(=O)c2cnc(Nc3ccc(-c4ccccc4)cc3)nc2n1-c1cccc(OC2CCNCC2)n1` [Compound 272, 6-(4-biphenylylamino)-2-ethyl-1-[6-(4-piperidyloxy)-2-pyridyl]-1,2-dihydro-3H-1,2,5,7-tetraazainden-3-one], for which the 50% inhibitory concentration (IC50) was < 10 nM in experiment [1] (setting [4]) and < 20 nM in experiment [2] (setting [5]). Further, the concentration for a half-maximal effect (EC50) in experiment [3] (setting [6]) fell in the range of 100 to 500 nM.

By IC50 is commonly meant the midpoint of a concentration-inhibition curve. The term EC50 denotes the midpoint of the concentration-response curve.
